Publication PMC6917776, “Discovery of a chemical probe for PRDM9” (Nature Communications, 2019)
Where two headings read alike, the source gives them in different places.

Assay: CelltiterGlo viability cell assay
Assay type: cell-based
Details: human
How it was run: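 Cells seeded at line-specific densities (e.g. 10000/well for MDA-MB-436) were treated with compound at 0.01–30 μM, and viability was read by CellTiter-Glo luminescence on day 3 or 6. Data are normalized to DMSO control, n=3 biological replicates.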

[1] = MDA-MB-436 breast cancer cells, MDA MB436, 3 day, read-out: viability Replicate 2
[2] = MDA-MB-436 breast cancer cells, MDA MB436, 3 day, read-out: viability Replicate 3
[3] = MDA-MB-436 breast cancer cells, MDA MB436, 3 day, read-out: viability Average
[4] = MDA-MB-436 breast cancer cells, MDA MB436, 3 day, read-out: viability Replicate 1
[5] = MDA-MB-436 breast cancer cells, MDA MB436, 6 day, read-out: viability Average
[6] = MDA-MB-436 breast cancer cells, MDA MB436, 6 day, read-out: viability Replicate 1
[7] = MDA-MB-436 breast cancer cells, MDA MB436, 6 day, read-out: viability Replicate 2
[8] = MDA-MB-436 breast cancer cells, MDA MB436, 6 day, read-out: viability Replicate 3
[9] = MDA-MB-436 cells, MDA MB436, 3 day, read-out: viability Replicate 1
[10] = MDA-MB-436 cells, MDA MB436, 3 day, read-out: viability Replicate 2
[11] = RPMI-8226 cells (multiple myeloma line), 8226, 3 day, read-out: viability Average
[12] = RPMI-8226 cells (multiple myeloma line), 8226, 3 day, read-out: viability Replicate 1
[13] = RPMI-8226 cells (multiple myeloma line), 8226, 3 day, read-out: viability Replicate 2
[14] = RPMI-8226 cells (multiple myeloma line), 8226, 3 day, read-out: viability Replicate 3
[15] = RPMI-8226 cells (multiple myeloma line), 8226, 6 day, read-out: viability Average
[16] = RPMI-8226 cells (multiple myeloma line), 8226, 6 day, read-out: viability Replicate 1
[17] = RPMI-8226 cells (multiple myeloma line), 8226, 6 day, read-out: viability Replicate 2
[18] = RPMI-8226 cells (multiple myeloma line), 8226, 6 day, read-out: viability Replicate 3
[19] = RPMI-8226 cells, 8226, 3 day, read-out: viability Average
[20] = RPMI-8226 cells, 8226, 3 day, read-out: viability Replicate 1
[21] = RPMI-8226 cells, 8226, 3 day, read-out: viability Replicate 2
[22] = RPMI-8226 cells, 8226, 3 day, read-out: viability Replicate 3
[23] = RPMI-8226 multiple myeloma cells, 8226, 3 day, read-out: viability Average

COc1cc(OC)cc(-c2noc(N3CCN(C)C4(CCN(c5ccnc(C)c5)CC4)C3)n2)c1 [MRK-740]
viability at 3 day, 0.01 µM [1]: 98.8% | viability at 3 day, 0.01 µM [2]: 92% | viability at 3 day, 0.03 µM [3]: 105% | viability at 3 day, 0.03 µM [4]: 124% | viability at 3 day, 0.03 µM [1]: 99.1% | viability at 3 day, 0.03 µM [2]: 92% | viability at 3 day, 0.3 µM [3]: 94.8% | viability at 3 day, 0.3 µM [2]: 92.8% | viability at 3 day, 1 µM [3]: 104% | viability at 3 day, 1 µM [4]: 114% | viability at 3 day, 1 µM [1]: 105% | viability at 3 day, 1 µM [2]: 93.4% | viability at 3 day, 3 µM [3]: 104% | viability at 3 day, 3 µM [4]: 120% | viability at 3 day, 3 µM [1]: 100% | viability at 3 day, 3 µM [2]: 91.2% | viability at 3 day, 9.5 µM [3]: 94.9% | viability at 3 day, 9.5 µM [4]: 108% | viability at 3 day, 9.5 µM [1]: 89.3% | viability at 3 day, 9.5 µM [2]: 87.6% | viability at 3 day, 30 µM [3]: 51.5% | viability at 3 day, 30 µM [4]: 60.8% | viability at 3 day, 30 µM [1]: 50% | viability at 3 day, 30 µM [2]: 43.6% | viability at 6 day, 0.01 µM [5]: 103% | viability at 6 day, 0.01 µM [6]: 97.8% | viability at 6 day, 0.01 µM [7]: 106% | viability at 6 day, 0.01 µM [8]: 107% | viability at 6 day, 0.03 µM [5]: 102% | viability at 6 day, 0.03 µM [6]: 99.8% | viability at 6 day, 0.03 µM [7]: 100% | viability at 6 day, 0.03 µM [8]: 106% | viability at 6 day, 0.1 µM [5]: 104% | viability at 6 day, 0.1 µM [6]: 105% | viability at 6 day, 0.1 µM [7]: 101% | viability at 6 day, 0.1 µM [8]: 106% | viability at 6 day, 0.3 µM [5]: 107% | viability at 6 day, 0.3 µM [6]: 108% | viability at 6 day, 0.3 µM [7]: 105% | viability at 6 day, 0.3 µM [8]: 109% | viability at 6 day, 1 µM [5]: 112% | viability at 6 day, 1 µM [6]: 109% | viability at 6 day, 1 µM [7]: 116% | viability at 6 day, 1 µM [8]: 111% | viability at 6 day, 3 µM [5]: 113% | viability at 6 day, 3 µM [6]: 115% | viability at 6 day, 3 µM [7]: 112% | viability at 6 day, 3 µM [8]: 112% | viability at 6 day, 9.5 µM [5]: 70.8% | viability at 6 day, 9.5 µM [6]: 69.6% | viability at 6 day, 9.5 µM [7]: 71% | viability at 6 day, 9.5 µM [8]: 71.9% | viability at 6 day, 30 µM [5]: 35.6% | viability at 6 day, 30 µM [6]: 34.7% | viability at 6 day, 30 µM [7]: 35.7% | viability at 6 day, 30 µM [8]: 36.5% | viability at 3 day, 0.1 µM (MDA-MB-436 cells, MDA MB436, 3 day, read-out: viability Average): 105% | viability at 3 day, 0.1 µM [9]: 123% | viability at 3 day, 0.1 µM [10]: 102% | viability at 3 day, 0.1 µM (MDA-MB-436 cells, MDA MB436, 3 day, read-out: viability Replicate 3): 90.1% | viability at 3 day, 0.3 µM [9]: 91.5% | viability at 3 day, 0.3 µM [10]: 100% | viability at 3 day, 9.5 µM [11]: 98.3% | viability at 3 day, 9.5 µM [12]: 105% | viability at 3 day, 9.5 µM [13]: 96.6% | viability at 3 day, 9.5 µM [14]: 93.4% | viability at 3 day, 30 µM [11]: 54.9% | viability at 3 day, 30 µM [12]: 74.2% | viability at 3 day, 30 µM [13]: 34.5% | viability at 3 day, 30 µM [14]: 56% | viability at 6 day, 0.01 µM [15]: 102% | viability at 6 day, 0.01 µM [16]: 101% | viability at 6 day, 0.01 µM [17]: 102% | viability at 6 day, 0.01 µM [18]: 102% | viability at 6 day, 0.03 µM [15]: 101% | viability at 6 day, 0.03 µM [16]: 100% | viability at 6 day, 0.03 µM [17]: 101% | viability at 6 day, 0.03 µM [18]: 102% | viability at 6 day, 0.1 µM [15]: 100% | viability at 6 day, 0.1 µM [16]: 96.9% | viability at 6 day, 0.1 µM [17]: 102% | viability at 6 day, 0.1 µM [18]: 102% | viability at 3 day, 0.01 µM [19]: 98.4% | viability at 3 day, 0.01 µM [20]: 97.7% | viability at 3 day, 0.01 µM [21]: 100% | viability at 3 day, 0.01 µM [22]: 97.6% | viability at 3 day, 0.03 µM [19]: 99.5% | viability at 3 day, 0.03 µM [20]: 97.9% | viability at 3 day, 0.03 µM [21]: 100% | viability at 3 day, 0.03 µM [22]: 100% | viability at 3 day, 0.1 µM [23]: 101% | viability at 3 day, 0.1 µM (RPMI-8226 multiple myeloma cells, 8226, 3 day, read-out: viability Replicate 1): 99.2% | viability at 3 day, 0.1 µM (RPMI-8226 multiple myeloma cells, 8226, 3 day, read-out: viability Replicate 2): 101% | viability at 3 day, 0.1 µM (RPMI-8226 multiple myeloma cells, 8226, 3 day, read-out: viability Replicate 3): 103% | viability at 3 day, 0.3 µM [23]: 102%
